Legend:
MiaPaCa-2 cells = experiment: Cell viability of MiaPaCa-2 pancreatic cancer cells in culture (MTT or WST-1, 72 hrs); type: cell-based, human; conditions: for LD50 MiaPaCa-2: oseltamivir phosphate analogues (TD), WST-1, 72 hrs; for Chemo-drug LD50 / Chemo-drug sensitivity with oseltamivir phosphate (fold increase): MiaPaCa-2; for Chemo-drug LD50: MTT, 72 hrs
PANC-1 cells = experiment: Cell viability of PANC-1 pancreatic cancer cells in culture (MTT or WST-1, 72 hrs); type: cell-based, human; conditions: for LD50 PANC-1: oseltamivir phosphate analogues (TD), WST-1, 72 hrs; for Chemo-drug LD50 / Chemo-drug sensitivity with oseltamivir phosphate (fold increase): PANC-1; for Chemo-drug LD50: MTT, 72 hrs
BxPC-3 cells = experiment: Cell viability of BxPC-3 pancreatic cancer cells in culture (MTT or WST-1, 72 hrs); type: cell-based, human; conditions: BxPC-3; for Chemo-drug LD50: MTT, 72 hrs
Neu1 sialidase = Neu1 sialidase (Mus musculus, UniProt O35657); experiment: LPS-induced Neu1 sialidase activity in live BMA macrophage cells (4-MUNANA); type: cell-based; parameters: endogenous in cells; host or cells: BMA macrophage cells; conditions: LPS-induced Neu1 sialidase activity, live BMA macrophage cells
Procedure: TLR-expressing BMA macrophage cells were grown on 12 mm circular glass slides in culture media containing DMEM supplemented with 10% fetal calf serum. […] Fluorescent images were taken after 2-3 minutes using epi-fluorescent microscopy (Zeiss Imager M2, 40× objective).
This recently developed assay was used to detect sialidase activity on the surface of viable cells. […] The inhibitory potency of a series of amide-linked C9 modified DANA (2-deoxy-2,3-dehydro-D-N-acetylneuraminic add) analogues on lipopolysaccharide (LPS)-induced Neu1 sialidase activity was assessed in live BMA macrophage cells.

[1] = test system: MiaPaCa-2-eGFP pancreatic cancer cells implanted in RAG2/Cγ double mutant Balbc xenograft mice; experiment: MiaPaCa-2-eGFP pancreatic cancer xenograft in RAG2/Cγ double mutant Balbc mice; type: in vivo, mouse; conditions: for Liver metastasis percent inhibition: vs untreated day 51
Procedure: Tumour measurements were taken twice a week.
MiaPaCa-2-eGFP pancreatic cancer cells at 1.5×10^6 in 0.2 mL were implanted subcutaneously in the right back flank of these mice. Each mouse in the study was identified by an ear punch number. Twice a week each mouse following implantation of the cancer cells was monitored for tumour volume growth (length and width) at the site of implantation, body weights, and body condition scoring. Scoring the body condition of rodents is a non-invasive method for assessing health and establishing endpoints for adults where body weight is not a viable monitoring tool, such as with tumour models. Body condition scores (BC) range from 1(emaciation) to 5 (obesity). An anticipated BCS of 2—under conditioned—or lower, requires justification in the protocol. Scores are determined by frequent visual and hands-on examination of each animal. The hands-on evaluation is done by gently holding the mouse by the base of the tail and passing a finger over the sacroiliac bones. The findings are matched to the descriptions and diagrams of BC ranges to determine a score. Scores are documented for each animal.

[2] = co-treatment oseltamivir phosphate 730 μM
[3] = co-treatment oseltamivir phosphate 1460 μM
[4] = chemo-drug + oseltamivir phosphate 10 mg/kg daily, Altima day 70, Abraxane day […]
[5] = chemo-drug alone, Altima 100 mg/kg day 70, Abraxane 200 mg/kg day 87
[6] = day 48, chemo-drug (alimta 100, abraxane 200 mg/kg) + oseltamivir phosphate 10 mg/kg daily i.p.
[7] = day 48, chemo-drug alone (alimta 100 mg/kg, abraxane 200 mg/kg i.p.)
[8] = day 63, chemo-drug (alimta 100, abraxane 200 mg/kg) + oseltamivir phosphate 10 mg/kg daily
[9] = day 63, chemo-drug alone (alimta 100 mg/kg, abraxane 200 mg/kg)
[10] = day 62, tamoxifen 0.1 mg/kg alone or with oseltamivir phosphate 100 mg/kg daily
[11] = day 66, tamoxifen 0.1 mg/kg alone or with oseltamivir phosphate 100 mg/kg daily

SMILES: CC(=O)N[C@@H]1CC[C@@](O)(C(=O)[O-])[C@H]2OC(C)(C)O[C@@H]12.[Na+]
- LD50 MiaPaCa-2 (MiaPaCa-2 cells): 2.1 µM
- LD50 PANC-1 (PANC-1 cells): >1000 µM

SMILES: CC(=O)N[C@H]1[C@@H]2OC(C)(C)O[C@@H]2C(C(=O)[O-])=C[C@H]1O.[Na+]
- LD50 MiaPaCa-2 (MiaPaCa-2 cells): 2.8 µM
- LD50 PANC-1 (PANC-1 cells): 349 µM

SMILES: O=c1[nH]cc(F)c(=O)[nH]1 [5-fluoruracil, Fluorouracil]
- Chemo-drug LD50 (MiaPaCa-2 cells; [2]): 0.6 µM
- Chemo-drug LD50 (MiaPaCa-2 cells; [3]): 0.078 µM
- Chemo-drug LD50 (MiaPaCa-2 cells; oseltamivir phosphate 0 μM): 2.20 µM
- Chemo-drug sensitivity with oseltamivir phosphate (fold increase) (MiaPaCa-2 cells; oseltamivir phosphate 730 μM): 4 fold increase
- Chemo-drug sensitivity with oseltamivir phosphate (fold increase) (MiaPaCa-2 cells; oseltamivir phosphate 1460 μM): 28 fold increase
- Chemo-drug LD50 (BxPC-3 cells; [2]): 0.78 µM
- Chemo-drug LD50 (BxPC-3 cells; [3]): 0.078 µM
- Chemo-drug LD50 (BxPC-3 cells; oseltamivir phosphate 0 μM): 12.5 µM
- Chemo-drug sensitivity with oseltamivir phosphate (fold increase) (BxPC-3 cells; oseltamivir phosphate 730 μM): 16 fold increase
- Chemo-drug sensitivity with oseltamivir phosphate (fold increase) (BxPC-3 cells; oseltamivir phosphate 1460 μM): 160 fold increase
- Chemo-drug LD50 (PANC-1 cells; [2]): 0.8 µM
- Chemo-drug LD50 (PANC-1 cells; [3]): 0.078 µM
- Chemo-drug LD50 (PANC-1 cells; oseltamivir phosphate 0 μM): 3.1 µM
- Chemo-drug sensitivity with oseltamivir phosphate (fold increase) (PANC-1 cells; oseltamivir phosphate 730 μM): 4 fold increase
- Chemo-drug sensitivity with oseltamivir phosphate (fold increase) (PANC-1 cells; oseltamivir phosphate 1460 μM): 40 fold increase

SMILES: CCOC1C(C(=O)[O-])=C[C@@H](O)[C@@H](NC(C)=O)[C@@H]1O.[Na+] (stereo partly shown) [A1, Sodium; 4-acetylamino-6-ethoxy-3,5-dihydroxy-cyclohex-1-enecarboxylate]
- LD50 MiaPaCa-2 (MiaPaCa-2 cells): 132 µM
- LD50 PANC-1 (PANC-1 cells): 848 µM

SMILES: CC(=O)N[C@H]1[C@H](O)C=C(C(=O)[O-])C[C@@H]1N.[Na+] [A2, Sodium; 4-acetylamino-5-amino-3-hydroxy-cyclohex-1-enecarboxylate]
- LD50 MiaPaCa-2 (MiaPaCa-2 cells): 1.97 µM
- LD50 PANC-1 (PANC-1 cells): 0.01 µM

SMILES: CC(=O)N[C@@H]1/C(=N/O)C=C(C(=O)[O-])[C@H]2OC(C)(C)O[C@H]21.[Na+] [A5, Sodium; 7-acetylamino-6-hydroxyimino-2,2-dimethyl-3a,6,7,7a-tetrahydro-benzo[1,3]dioxole-4-carboxylate]
- LD50 MiaPaCa-2 (MiaPaCa-2 cells): 24 µM
- LD50 PANC-1 (PANC-1 cells): 3 µM

SMILES: CCC(CC)O[C@@H]1C=C(C(=O)[O-])[C@H]2OC(C)(C)O[C@H]2[C@H]1NC(C)=O.[Na+] [A6, Sodium; 7-acetylamino-6-(1-ethyl-propoxy)-2,2-dimethyl-3a,6,7,7a-tetrahydro-benzo[1,3]dioxole-4-carboxylate]
- LD50 MiaPaCa-2 (MiaPaCa-2 cells): >2000 µM
- LD50 PANC-1 (PANC-1 cells): >2000 µM

SMILES: CCCC(=O)NC[C@H](O)[C@H](O)C1OC(C(=O)O)=CC(O)[C@H]1NC(C)=O (stereo partly shown) [B1]
- IC50 (Neu1 sialidase): 0.0138 µM

SMILES: CCC(C)C(=O)NC[C@H](O)[C@H](O)C1OC(C(=O)O)=CC(O)[C@H]1NC(C)=O (stereo partly shown) [B2]
- IC50 (Neu1 sialidase): 29.7 µM

SMILES: CC(=O)N[C@@H]1C(O)C=C(C(=O)O)OC1[C@@H](O)[C@@H](O)CNC(=O)C1CCCCC1 (stereo partly shown) [B3]
- IC50 (Neu1 sialidase): 0.0039 µM

SMILES: CC(=O)NC[C@H](O)[C@H](O)C1OC(C(=O)O)=CC(O)[C@H]1NC(C)=O (stereo partly shown) [B4]
- IC50 (Neu1 sialidase): 2.98 µM

SMILES: CCCCC(=O)NC[C@H](O)[C@H](O)C1OC(C(=O)O)=CC(O)[C@H]1NC(C)=O (stereo partly shown) [B5]
- IC50 (Neu1 sialidase): 1.45 µM

SMILES: CC(=O)N[C@@H]1C(O)C=C(C(=O)O)OC1[C@@H](O)[C@@H](O)CNC(=O)C1CCCC1 (stereo partly shown) [B6]
- IC50 (Neu1 sialidase): 76.6 µM

SMILES: CC(=O)N[C@@H]1C(O)C=C(C(=O)O)OC1[C@@H](O)[C@@H](O)CNC(=O)C(C)C (stereo partly shown) [B7]
- IC50 (Neu1 sialidase): 683 µM

SMILES: CCC(CC)C(=O)NC[C@H](O)[C@H](O)C1OC(C(=O)O)=CC(O)[C@H]1NC(C)=O (stereo partly shown) [B8]
- IC50 (Neu1 sialidase): 1050 µM

SMILES: CC(=O)N[C@@H]1C(O)C=C(C(=O)O)OC1[C@@H](O)[C@@H](O)CNC(=O)C1CC1 (stereo partly shown) [B9]
- IC50 (Neu1 sialidase): 1120 µM

SMILES: CC(=O)N[C@@H]1C(O)C=C(C(=O)O)OC1[C@@H](O)[C@@H](O)CNC(=O)C(C)(C)C (stereo partly shown) [B10]
- IC50 (Neu1 sialidase): 411 µM

SMILES: Nc1nc2[nH]cc(CCc3ccc(C(=O)N[C@@H](CCC(=O)O)C(=O)O)cc3)c2c(=O)[nH]1 [alimta, Pemetrexed]
- Survival of tumour bearing mice ([1]; chemo-drug (Alimta 100, Abraxane 200 mg/kg) + oseltamivir phosphate 10 mg/kg daily, untreated control day 51): 70 days
- Liver Metastasis (avg no. nodules) ([1]; chemo-drug + oseltamivir phosphate 10 mg/kg daily, Altima 100 mg/kg day 70, Abraxane 200 mg/kg day […]): 3
- Metastases (size, mm) [1, 4]: 0.2-0.5 mm
- Liver metastasis percent inhibition [1, 4]: 91%
- Liver Metastasis (avg no. nodules) [1, 5]: 5
- Metastases (size, mm) [1, 5]: 0.2-1.0 mm
- Liver metastasis percent inhibition [1, 5]: 85%
- Survival of tumour bearing mice ([1]; chemo-drug monotherapy (Alimta 100 mg/kg, Abraxane 200 mg/kg), untreated control day 51): 70 days
- % Inhibition To untreated [1, 6]: 77%
- Tumour volume [1, 6]: 189 mm^3
- % Inhibition To untreated ([1]; day 48, chemo-drug (alimta 100, abraxane 200 mg/kg) + oseltamivir phosphate 10 mg/kg daily i.p., listed as Almita): 77%
- % Inhibition To untreated [1, 7]: 72%
- Tumour volume [1, 7]: 225 mm^3
- % Inhibition To untreated [1, 8]: 3%
- Tumour volume [1, 8]: 787 mm^3
- % Inhibition To untreated [1, 9]: 40%
- Tumour volume [1, 9]: 482 mm^3

SMILES: CC/C(=C(\c1ccccc1)c1ccc(OCCN(C)C)cc1)c1ccccc1 [tamoxifen, Tamoxifen]
- Chemo-drug LD50 (MiaPaCa-2 cells; [2]): 0.8 µM
- Chemo-drug LD50 (MiaPaCa-2 cells; [3]): 0.078 µM
- Chemo-drug LD50 (MiaPaCa-2 cells; oseltamivir phosphate 0 μM): 7.0 µM
- Chemo-drug sensitivity with oseltamivir phosphate (fold increase) (MiaPaCa-2 cells; oseltamivir phosphate 730 μM): 9 fold increase
- Chemo-drug sensitivity with oseltamivir phosphate (fold increase) (MiaPaCa-2 cells; oseltamivir phosphate 1460 μM): 90 fold increase
- Chemo-drug LD50 (BxPC-3 cells; [2]): 3 µM
- Chemo-drug LD50 (BxPC-3 cells; [3]): 0.078 µM
- Chemo-drug LD50 (BxPC-3 cells; oseltamivir phosphate 0 μM): 9 µM
- Chemo-drug sensitivity with oseltamivir phosphate (fold increase) (BxPC-3 cells; oseltamivir phosphate 730 μM): 3 fold increase
- Chemo-drug sensitivity with oseltamivir phosphate (fold increase) (BxPC-3 cells; oseltamivir phosphate 1460 μM): 115 fold increase
- Chemo-drug LD50 (PANC-1 cells; [2]): 0.8 µM
- Chemo-drug LD50 (PANC-1 cells; [3]): 0.078 µM
- Chemo-drug LD50 (PANC-1 cells; oseltamivir phosphate 0 μM): 12.5 µM
- Chemo-drug sensitivity with oseltamivir phosphate (fold increase) (PANC-1 cells; oseltamivir phosphate 730 μM): 16 fold increase
- Chemo-drug sensitivity with oseltamivir phosphate (fold increase) (PANC-1 cells; oseltamivir phosphate 1460 μM): 160 fold increase
- % Inhibition To untreated ([1]; day 59, tamoxifen 0.1 mg/kg alone or with oseltamivir phosphate 100 mg/kg daily): 57%
- Tumour volume ([1]; day 59, tamoxifen 0.1 mg/kg i.p. alone or with oseltamivir phosphate 100 mg/kg i.p. daily): 960 ± 208 (4) mm^3
- % Inhibition To untreated [1, 10]: 21%
- Tumour volume [1, 10]: 1738 ± 328 (4) mm^3
- % Inhibition To untreated [1, 11]: 0%
- Tumour volume [1, 11]: 2650 ± 360 (3) mm^3
- Survival of tumour bearing mice ([1]; tamoxifen 0.1 mg/kg alone or with oseltamivir phosphate 100 mg/kg daily, untreated control day 60): 66 days

— patent US10350188B2, “Use of Neu1 sialidase inhibitors in the treatment of cancer” (priority 2011, dated 2019)
